According to patent US9247759B2, “Identification of human T2R receptors that respond to bitter compounds that elicit the bitter taste in compositions, and the use thereof in assays to identify compounds that inhibit (block) bitter taste in compositions and use thereof” (SENOMYX, INC., priority 2007, dated 2016):

Columns and labels:
hT2R55 = experiment: hT2R panel inhibition, transient HEK293 G16g44, agonist Cinchonine 150 μM; assay type: cell-based, human; conditions: compound at 25 μM; receptor activated to EC80 with the corresponding agonist
How it was run: (§1)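 The test compound's selectivity was profiled by challenging each transiently expressed human T2R with its activating bitter ligand at an EC80 concentration, inhibition being the reduction of receptor signalling it produced.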

hT2R4 = hT2R4 (Homo sapiens (Human), UniProt Q9NYW5); experiment: hT2R panel inhibition, transient HEK293 G16g44, agonist Chloroquine pH6.5 5 mM; assay type: cell-based; conditions: HEK293, compound at 25 μM; receptor activated to EC80 with the corresponding agonist; class symbols; read-out: screening result against bitter receptor 4
Sequence of hT2R4 (Q9NYW5 whole entry): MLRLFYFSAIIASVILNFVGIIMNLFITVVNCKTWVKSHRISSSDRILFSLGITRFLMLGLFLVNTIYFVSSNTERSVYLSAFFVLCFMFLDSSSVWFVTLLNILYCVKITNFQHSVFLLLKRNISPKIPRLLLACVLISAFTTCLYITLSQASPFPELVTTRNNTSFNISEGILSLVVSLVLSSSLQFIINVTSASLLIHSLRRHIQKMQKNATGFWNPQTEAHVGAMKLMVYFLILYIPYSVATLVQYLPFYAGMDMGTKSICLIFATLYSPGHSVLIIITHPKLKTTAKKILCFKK
Procedure: (§2) Specifically, in order to evaluate the inhibitory selectivity of the Compound C compound, this compound was tested against 22 human T2Rs which were deorphaned by Senomyx. These receptors and the bitter ligands that activate these human T2Rs are reported in earlier patent applications which are incorporated by reference herein. These 22 human T2Rs are hT2R1, 3, 4, 5, 7, 8, 9, 10, 13, 14, 16, 44, 51, 54, 55, 61, 63, 64, 65, 67, 71 and 75. The amino acid and nucleic acid sequences of all of these T2Rs may be found in these earlier patent applications. These human T2Rs were each individually transiently transfected into HEK293 cells that stably express the promiscuous G protein G16g44 and functional assays were effected using these receptors as disclosed in these same patent applications. […] The ligands were used at EC80 concentration levels. The list of bitter ligands utilized and the tested ligand concentrations are contained in Table 5 of this example.
(§3) Relating to the foregoing, FIG. 5 contains experimental results wherein Compound C was tested with different agonist compounds. The inhibition activity is represented by the reduction of receptor activity in the presence of Compound C. […] These 13 hT2Rs are hT2R3, 7, 10, 14, 16, 44, 51, 55, 61, 63, 64, 65, and 71.

hT2R71 = hT2R71 (Homo sapiens (Human), UniProt P59536); experiment: hT2R panel inhibition, transient HEK293 G16g44, agonist Picric Acid 10 μM; assay type: cell-based; conditions: HEK293, compound at 25 μM; receptor activated to EC80 with the corresponding agonist; read-out: screening result against bitter receptor 71
Sequence of hT2R71 (P59536 whole entry): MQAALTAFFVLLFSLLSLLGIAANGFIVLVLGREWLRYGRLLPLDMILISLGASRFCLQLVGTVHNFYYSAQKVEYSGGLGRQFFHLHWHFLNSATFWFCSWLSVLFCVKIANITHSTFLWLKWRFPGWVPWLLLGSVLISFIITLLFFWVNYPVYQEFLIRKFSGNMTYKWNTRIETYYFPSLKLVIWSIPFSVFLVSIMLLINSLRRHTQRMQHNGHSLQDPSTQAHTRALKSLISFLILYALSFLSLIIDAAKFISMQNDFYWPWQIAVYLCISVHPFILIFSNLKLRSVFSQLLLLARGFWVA
How it was run: as §1

hT2R61 = hT2R61 (Homo sapiens (Human), UniProt P59537); experiment: hT2R panel inhibition, transient HEK293 G16g44, agonist Aristolochic Acid 25 nM; assay type: cell-based; conditions: HEK293, compound at 25 μM; receptor activated to EC80 with the corresponding agonist; read-out: screening result against bitter receptor 61
Sequence of hT2R61 (P59537 whole entry): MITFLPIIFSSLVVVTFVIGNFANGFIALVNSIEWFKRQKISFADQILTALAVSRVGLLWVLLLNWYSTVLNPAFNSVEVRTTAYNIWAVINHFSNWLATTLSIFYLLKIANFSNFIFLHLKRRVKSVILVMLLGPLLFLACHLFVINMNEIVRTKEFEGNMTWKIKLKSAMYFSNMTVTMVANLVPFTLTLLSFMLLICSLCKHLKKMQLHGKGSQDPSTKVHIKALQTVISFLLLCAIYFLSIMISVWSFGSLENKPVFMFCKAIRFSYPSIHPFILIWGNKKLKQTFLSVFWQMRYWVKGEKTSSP
How it was run: as §1

hT2R14 [1] = target: T1, hT2R14 (Homo sapiens (Human), UniProt Q9NYV8); experiment: hT2R panel inhibition, transient HEK293 G16g44, agonist Aristolochic Acid 2 μM; assay type: cell-based; conditions: HEK293, compound at 25 μM; receptor activated to EC80 with the corresponding agonist; read-out: screening result against bitter receptor 14
T1 sequence (Q9NYV8 whole entry): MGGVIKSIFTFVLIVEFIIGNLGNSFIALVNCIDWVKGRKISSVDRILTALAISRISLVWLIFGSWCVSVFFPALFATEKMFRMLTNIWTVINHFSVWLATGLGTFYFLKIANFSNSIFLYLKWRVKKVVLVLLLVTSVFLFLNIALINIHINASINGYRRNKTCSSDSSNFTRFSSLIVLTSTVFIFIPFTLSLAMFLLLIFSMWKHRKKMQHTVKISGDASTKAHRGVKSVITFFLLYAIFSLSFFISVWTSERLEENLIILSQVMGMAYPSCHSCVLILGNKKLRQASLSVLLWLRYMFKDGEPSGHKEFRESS
How it was run: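 Each hT2R was transiently transfected into HEK293 cells stably expressing G16g44 and assayed functionally for inhibition of agonist response. Agonists were applied at EC80: andrographolide at 0.5 mM for hT2R8 and aristolochic acid at 2 μM for hT2R14.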

hT2R14 [2] = target: T1, hT2R14; experiment: hT2R14 antagonist high-throughput FLIPR assay, stable cell line with G16g44, agonist aristolochic acid; assay type: cell-based; conditions: read-out: IC50 on hT2R14 bitter receptor
How it was run: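 HEK293 cells stably expressing hT2R14 with chimeric G16g44 were stimulated with aristolochic acid (3 μM), giving 70-80% of maximal receptor activity. Test compounds were added together with the agonist, and antagonism was read as fluorescent calcium signal on FLIPR.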

hT2R44 = experiment: hT2R panel inhibition, transient HEK293 G16g44, agonist Denatonium 0.5 μM; assay type: cell-based, human; conditions: compound at 25 μM; receptor activated to EC80 with the corresponding agonist
How it was run: as §1

hT2R16 = hT2R16 (Homo sapiens (Human), UniProt Q9NYV7); experiment: hT2R panel inhibition, transient HEK293 G16g44, agonist Salicin 1 mM; assay type: cell-based; conditions: HEK293, compound at 25 μM; receptor activated to EC80 with the corresponding agonist; read-out: screening result against bitter receptor 16
Sequence of hT2R16 (Q9NYV7 whole entry): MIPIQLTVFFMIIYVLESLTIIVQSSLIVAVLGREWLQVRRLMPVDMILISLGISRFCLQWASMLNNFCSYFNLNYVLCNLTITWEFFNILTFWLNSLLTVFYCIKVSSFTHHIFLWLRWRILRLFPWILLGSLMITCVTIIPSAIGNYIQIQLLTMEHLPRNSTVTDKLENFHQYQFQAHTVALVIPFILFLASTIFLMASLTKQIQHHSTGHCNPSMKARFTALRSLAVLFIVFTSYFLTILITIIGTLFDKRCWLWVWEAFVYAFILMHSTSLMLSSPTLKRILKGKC
How it was run: as §1

hT2R3 = hT2R3 (Homo sapiens (Human), UniProt Q9NYW6); experiment: hT2R panel inhibition, transient HEK293 G16g44, agonist Chloroquine pH6.5 50 μM; assay type: cell-based; conditions: HEK293, compound at 25 μM; receptor activated to EC80 with the corresponding agonist; read-out: screening result against bitter receptor 3
Sequence of hT2R3 (Q9NYW6 whole entry): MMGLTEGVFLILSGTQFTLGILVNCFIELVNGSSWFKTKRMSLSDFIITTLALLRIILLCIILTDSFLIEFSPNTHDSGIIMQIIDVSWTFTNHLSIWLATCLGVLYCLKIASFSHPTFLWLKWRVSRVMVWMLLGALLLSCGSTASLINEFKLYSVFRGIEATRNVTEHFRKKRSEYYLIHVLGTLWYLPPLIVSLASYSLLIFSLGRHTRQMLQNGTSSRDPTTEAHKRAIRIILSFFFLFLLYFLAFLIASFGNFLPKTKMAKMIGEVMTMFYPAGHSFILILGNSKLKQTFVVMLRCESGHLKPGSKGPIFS
How it was run: as §1

hT2R63 = experiment: hT2R panel inhibition, transient HEK293 G16g44, agonist Caffeine 1 mM or Andrographolide 100 μM; assay type: cell-based, human; conditions: compound at 25 μM; receptor activated to EC80 with the corresponding agonist
How it was run: as §1

hT2R64 = hT2R64 (Homo sapiens (Human), UniProt P59538); experiment: hT2R panel inhibition, transient HEK293 G16g44, agonist Aristolochic Acid 1 μM; assay type: cell-based; conditions: HEK293, compound at 25 μM; receptor activated to EC80 with the corresponding agonist; read-out: screening result against bitter receptor 64
Sequence of hT2R64 (P59538 whole entry): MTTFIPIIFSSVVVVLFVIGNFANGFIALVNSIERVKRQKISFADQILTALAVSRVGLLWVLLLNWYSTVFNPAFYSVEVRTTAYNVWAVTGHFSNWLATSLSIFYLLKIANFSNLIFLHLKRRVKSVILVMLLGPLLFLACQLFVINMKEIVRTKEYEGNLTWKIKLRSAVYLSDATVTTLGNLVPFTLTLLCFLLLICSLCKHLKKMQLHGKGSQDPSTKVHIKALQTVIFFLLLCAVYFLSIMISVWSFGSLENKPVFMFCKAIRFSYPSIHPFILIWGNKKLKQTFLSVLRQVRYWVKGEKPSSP
How it was run: as §1

hT2R7 = hT2R7 (Homo sapiens (Human), UniProt Q9NYW3); experiment: hT2R panel inhibition, transient HEK293 G16g44, agonist Chloroquine pH6.5 10 mM; assay type: cell-based; conditions: HEK293, compound at 25 μM; receptor activated to EC80 with the corresponding agonist; read-out: screening result against bitter receptor 7
Sequence of hT2R7 (Q9NYW3 whole entry): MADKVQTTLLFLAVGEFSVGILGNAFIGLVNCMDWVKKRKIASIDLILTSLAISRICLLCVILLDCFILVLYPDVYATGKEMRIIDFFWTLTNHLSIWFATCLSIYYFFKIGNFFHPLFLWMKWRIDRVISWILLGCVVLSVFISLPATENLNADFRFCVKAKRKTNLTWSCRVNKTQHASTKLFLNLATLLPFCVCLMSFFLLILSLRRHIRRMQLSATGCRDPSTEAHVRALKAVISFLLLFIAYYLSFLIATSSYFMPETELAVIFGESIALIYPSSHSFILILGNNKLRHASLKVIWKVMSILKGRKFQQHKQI
How it was run: as §1

hT2R67 = experiment: hT2R panel inhibition, transient HEK293 G16g44, agonist Andrographolide 5 μM; assay type: cell-based, human; conditions: compound at 25 μM; receptor activated to EC80 with the corresponding agonist
How it was run: as §1

hT2R54 = experiment: hT2R panel inhibition, transient HEK293 G16g44, agonist Ranitidine 5 mM; assay type: cell-based, human; conditions: compound at 25 μM; receptor activated to EC80 with the corresponding agonist
How it was run: as §1

hT2R75 = hT2R75 (Homo sapiens (Human), UniProt P59540); experiment: hT2R panel inhibition, transient HEK293 G16g44, agonist Strychnine 1 μM; assay type: cell-based; conditions: HEK293, read-out: screening result against bitter receptor 75, compound at 25 μM; receptor activated to EC80 with the corresponding agonist
Sequence of hT2R75 (P59540 whole entry): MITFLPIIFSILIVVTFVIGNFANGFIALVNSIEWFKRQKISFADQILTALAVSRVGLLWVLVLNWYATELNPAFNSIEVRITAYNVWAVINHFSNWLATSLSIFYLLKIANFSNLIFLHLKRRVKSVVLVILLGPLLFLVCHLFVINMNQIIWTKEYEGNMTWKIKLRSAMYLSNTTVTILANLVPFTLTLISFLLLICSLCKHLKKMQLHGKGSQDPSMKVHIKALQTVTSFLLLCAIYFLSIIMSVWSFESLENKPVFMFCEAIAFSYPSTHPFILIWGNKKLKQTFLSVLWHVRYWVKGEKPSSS
Procedure: as §2, §3

hT2R51 = hT2R51 (Homo sapiens (Human), UniProt P59533); experiment: hT2R panel inhibition, transient HEK293 G16g44, agonist Prop 2.5 μM; assay type: cell-based; conditions: HEK293, compound at 25 μM; receptor activated to EC80 with the corresponding agonist; read-out: screening result against bitter receptor 51
Sequence of hT2R51 (P59533 whole entry): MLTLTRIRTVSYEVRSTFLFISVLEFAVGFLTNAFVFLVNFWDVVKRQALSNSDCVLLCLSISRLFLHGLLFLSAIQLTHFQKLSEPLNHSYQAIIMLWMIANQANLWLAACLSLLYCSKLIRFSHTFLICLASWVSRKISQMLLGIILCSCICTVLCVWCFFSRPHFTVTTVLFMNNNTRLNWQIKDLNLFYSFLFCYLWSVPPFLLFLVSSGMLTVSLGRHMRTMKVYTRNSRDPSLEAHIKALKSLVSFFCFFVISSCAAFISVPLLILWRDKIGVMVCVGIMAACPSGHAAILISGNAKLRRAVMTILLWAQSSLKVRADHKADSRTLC
Procedure: as §2, §3

hT2R10 = hT2R10 (Homo sapiens (Human), UniProt Q9NYW0); experiment: hT2R panel inhibition, transient HEK293 G16g44, agonist Strychnine 50 μM; assay type: cell-based; conditions: HEK293, read-out: screening result against bitter receptor 10, compound at 25 μM; receptor activated to EC80 with the corresponding agonist
Sequence of hT2R10 (Q9NYW0 whole entry): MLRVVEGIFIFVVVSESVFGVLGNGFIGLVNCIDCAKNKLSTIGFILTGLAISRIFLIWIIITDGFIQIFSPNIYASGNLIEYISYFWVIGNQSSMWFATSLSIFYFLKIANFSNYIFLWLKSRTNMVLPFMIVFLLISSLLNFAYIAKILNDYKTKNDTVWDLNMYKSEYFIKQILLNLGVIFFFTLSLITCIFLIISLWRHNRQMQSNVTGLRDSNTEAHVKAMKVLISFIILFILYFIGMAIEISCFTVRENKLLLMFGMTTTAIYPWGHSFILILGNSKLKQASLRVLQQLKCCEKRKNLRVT

hT2R65 = experiment: hT2R panel inhibition, transient HEK293 G16g44, agonist Oleuropein 1 mM; assay type: cell-based, human; conditions: compound at 25 μM; receptor activated to EC80 with the corresponding agonist
How it was run: as §1

hT2R5 = hT2R5 (Homo sapiens (Human), UniProt Q9NYW4); experiment: hT2R panel inhibition, transient HEK293 G16g44, agonist Picoline 10 mM; assay type: cell-based; conditions: HEK293, compound at 25 μM; receptor activated to EC80 with the corresponding agonist; read-out: screening result against bitter receptor 5
Sequence of hT2R5 (Q9NYW4 whole entry): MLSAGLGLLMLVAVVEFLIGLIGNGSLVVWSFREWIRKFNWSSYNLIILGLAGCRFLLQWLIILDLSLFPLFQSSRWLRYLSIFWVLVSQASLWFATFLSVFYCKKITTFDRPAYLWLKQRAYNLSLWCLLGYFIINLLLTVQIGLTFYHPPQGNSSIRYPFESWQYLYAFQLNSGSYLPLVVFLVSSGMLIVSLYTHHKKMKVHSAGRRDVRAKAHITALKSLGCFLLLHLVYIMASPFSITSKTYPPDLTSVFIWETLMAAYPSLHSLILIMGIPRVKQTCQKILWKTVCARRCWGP
How it was run: as §1

SMILES	screening result against bitter receptor 55 (hT2R55)	inhibition at 25 µM (hT2R4)	inhibition at 25 µM (hT2R71)	inhibition at 25 µM (hT2R61)	inhibition at 25 µM (hT2R14 [1])	IC50 (hT2R14 [2])	screening result against bitter receptor 44 (hT2R44)	inhibition at 25 µM (hT2R16)	inhibition at 25 µM (hT2R3)	screening result against bitter receptor 63 (hT2R63)	inhibition at 25 µM (hT2R64)	inhibition at 25 µM (hT2R7)	screening result against bitter receptor 67 (hT2R67)	screening result against bitter receptor 54 (hT2R54)	inhibition at 25 µM (hT2R75)	inhibition at 25 µM (hT2R51)	inhibition at 25 µM (hT2R10)	screening result against bitter receptor 65 (hT2R65)	inhibition at 25 µM (hT2R5)
CC(=O)Nc1ccc(S(=O)(=O)N(Cc2ccccc2)CC2CCC(C(=O)O)CC2)cc1 (stereo not drawn) [Example 5-21, 4-((4-acetamido-N-benzylphenylsulfonamido)methyl)-cyclohexanecarboxylic acid]	+ (20% to 40% inhibition = +)	20 to 40%	20 to 40%	60 to 80%	> 80%	1.62 µM	++ (40% to 60% inhibition = ++)	20 to 40%	20 to 40%	+++ (60% to 80% inhibition = +++)	20 to 40%	–	–	–	–	–	–	–	–
O=C(O)C1CCC(CN(Cc2ccc(F)cc2)S(=O)(=O)Cc2ccccc2)CC1 (stereo not drawn) [Example 5-24, 4-((N-(4-fluorobenzyl)-1-phenylmethylsulfonamido)methyl)-cyclohexanecarboxylic acid]	++ (40% to 60% inhibition = ++)	20 to 40%	20 to 40%	> 80%	–	9.57 µM	+ (20% to 40% inhibition = +)	–	–	+ (20% to 40% inhibition = +)	60 to 80%	20 to 40%	–	–	–	–	–	–	–
COc1ccc(CN(Cc2ccc(NC(C)=O)cc2)S(=O)(=O)c2ccc(C(=O)O)cc2)cc1 [Example 5-26, 4-(N-(4-acetamidobenzyl)-N-(4-methoxybenzyl)sulfamoyl)benzoic acid]	–	40 to 60%	20 to 40%	20 to 40%	–	–	+ (20% to 40% inhibition = +)	–	–	+++ (60% to 80% inhibition = +++)	60 to 80%	20 to 40%	–	–	–	–	–	–	–
COc1cccc(CN(Cc2ccc(C(=O)O)cc2)S(=O)(=O)c2ccc(O)cc2)c1 [Example 5-43, 4-((4-hydroxy-N-(3-methoxybenzyl)phenylsulfonamido)methyl)-benzoic acid]	+ (20% to 40% inhibition = +)	20 to 40%	40 to 60%	> 80%	> 80%	0.188 µM	+ (20% to 40% inhibition = +)	20 to 40%	20 to 40%	++++ (80% or greater inhibition = ++++)	60 to 80%	–	–	–	–	–	–	–	–
O=C(O)C1CCC(CN(Cc2ccc(F)cc2)S(=O)(=O)c2ccccn2)CC1 (stereo not drawn) [Example 5-53, 4-((N-(4-fluorobenzyl)pyridine-2-sulfonamido)methyl)cyclohexanecarboxylic acid]	–	20 to 40%	20 to 40%	–	40 to 60%	–	–	–	–	++ (40% to 60% inhibition = ++)	40 to 60%	20 to 40%	–	–	–	–	–	–	–
COc1ccc(CN(Cc2ccccc2Cl)S(=O)(=O)c2ccc(C(=O)O)cc2)cc1 [Example 5-68, 4-(N-(2-chlorobenzyl)-N-(4-methoxybenzyl)sulfamoyl)benzoic acid]	++++ (80% or greater inhibition = ++++)	–	60 to 80%	60 to 80%	> 80%	–	++ (40% to 60% inhibition = ++)	20 to 40%	20 to 40%	++++ (80% or greater inhibition = ++++)	60 to 80%	20 to 40%	+ (20% to 40% inhibition = +)	+ (20% to 40% inhibition = +)	20 to 40%	20 to 40%	20 to 40%	+ (20% to 40% inhibition = +)	40 to 60%
O=C(O)c1ccc(S(=O)(=O)N(Cc2ccccc2)Cc2ccccc2Cl)cc1 [Example 5-83, 4-(N-benzyl-N-(2-chlorobenzyl)sulfamoyl)benzoic acid]	+++ (60% to 80% inhibition = +++)	–	20 to 40%	> 80%	> 80%	–	+ (20% to 40% inhibition = +)	40 to 60%	40 to 60%	+++ (60% to 80% inhibition = +++)	20 to 40%	20 to 40%	++ (40% to 60% inhibition = ++)	++ (40% to 60% inhibition = ++)	40 to 60%	20 to 40%	40 to 60%	+++ (60% to 80% inhibition = +++)	20 to 40%
COc1ccc(CN2C(=O)N(c3ccc(C(=O)O)cc3)C(=O)C2Cc2ccccc2)cc1 (stereo not drawn) [Example 5-98, 4-(4-benzyl-3-(4-methoxybenzyl)-2,5-dioxoimidazolidin-1-yl)benzoic acid]	++++ (80% or greater inhibition = ++++)	40 to 60%	–	> 80%	–	–	+++ (60% to 80% inhibition = +++)	–	20 to 40%	–	60 to 80%	–	–	–	–	–	–	–	–
